In paper PMC11547840, “The Intestinal Barrier Protective Effect of Indole Aldehyde Derivatives on Acute Toxoplasma gondii Infection” (Molecules, 2024):
“Also recorded” adds a separate entry of the source. Where two headings read alike, the source gives them in different places.

Tests used:
[1] = tested on: IEC-6 cells; experiment: MTT cytotoxicity assay in IEC-6 cells; assay type: cell-based; conditions: Rattus norvegicus, read-out: IC50 in IEC-6 Cells
Description: (§1) Anti-T. gondii activity and cytotoxicity of indole derivatives in vitro were evaluated by MTT assay (Solarbio, Beijing, China) using a slightly modified version of the procedure of Shang et al.. IEC-6 cells were seeded onto the 96-well plates (2 × 10^3/well) for 24 h to obtain the full monolayer, and then the host cells were infected with T. gondii (parasite: cell = 3:1) in complete medium. After 24 h, cells were washed to remove any extra parasites and then incubated with different concentrations (20, 200, 500 and 1000 μm) of […]. […] After 24 h of treatment, MTT solution was added directly to the culture wells and then incubated for 4 h at 37 °C. The optical absorbance was measured at a wavelength of 548 nm using a microplate reader (SpectraMax M2, Molecular Devices, Sunnyvale, CA, USA). Giemsa staining was used to observe the changes in cell morphology and the proliferation of T. gondii-infected cells. IEC-6 (1 × 10^5 cells/well) was inoculated into 24-well plates containing round coverslip, and after the cells were attached to the wall, T. gondii (3 × 10^5 cells/well) was added to infect the cells for 3 h. After the culture medium was discarded, PBS was added to remove the uninvaded tachyzoites. […] After discarding the supernatant, the cells were washed with PBS and completely aspirated, and then fixed by adding 0.5 mL of methanol for 3 min. Giemsa staining solution was added and shaken slightly to make the staining uniform. Coverslips were rinsed with distilled water to replace the staining solution, and finally, the slices were sealed with neutral gum and air-dried.

[2] = tested on: T. gondii; experiment: MTT anti-T. gondii activity in T. gondii-infected IEC-6 cells; assay type: cell-based, Toxoplasma gondii; conditions: for Selective Index (SI): IC50 in IEC-6 cells/IC50 in T. gondii-infected IEC-6 cells; for IC50: Toxoplasma gondii, read-out: IC50 in T. gondii
Description: as §1

[3] = tested on: small intestine of mice with T. gondii infection; experiment: Small intestine and serum biochemical parameters (GSH, MDA, NO, DAO) of T. gondii-infected mice; assay type: in vivo; conditions: 100 mg/kg oral once a day for 6 days
Description: (§2) For the in vivo study, KM female mice were divided into groups consisting of six animals each and then intraperitoneally injected with 2 × 10^3 tachyzoites. […] On the last day, heart blood samples were collected after anesthesia to separate the serum, and after mice were sacrificed by cervical dislocation, mice were dissected to obtain organs and tissues. The tachyzoites were harvested from mice peritoneal cavities to determine the level of tachyzoite proliferation. The peritoneal fluid was collected twice; the first time, it was centrifuged at 500 rpm for 10 min, then the supernatant was centrifuged at 2500 rpm for 20 min, discarded, and the worm precipitate was collected at the bottom, and mixed with an appropriate amount of physiological saline. A total of 10 μL of T. gondii suspension was mixed with 10 μL of 4% Trypan blue staining solution in a 1.5 mL centrifuge tube.
The GSH was measured according to the method in [58]. The intestine homogenate was mixed with half volume trichloroacetic acid (20%, w/v) and centrifuged at 4000 rpm for 10 min. Then, phosphate buffer (phosphate 0.3 mol/L, pH 7.5) and 5,5-dithio-bis-(2-nitrobenzoic acid) (0.04%, w/v) were added to the separated supernatant and mixed thoroughly. After 5 min at room temperature, the absorbance was measured at 412 nm.
MDA was measured by the standard method with minor modifications. The small intestine homogenate supernatant was mixed with thiobarbituric acid (0.5%, w/v) and heated in boiling water bath for 1 h, then cooled quickly and centrifuged at 6000 rpm for 10 min; the absorbance of pink colored supernatant was measured at 532 nm. Tetraethoxypropane replaced the intestine homogenate in the standard sample.
(§3) The Greiss method was used to determine the NO content in small intestine tissues and cells. The above small intestine tissue homogenate or IEC-6 cell supernatant was centrifuged at 4 °C and 1500 rpm for 15 min, and the absorbance was measured at 540 nm by adding equal amounts of Griess A and B reagents to the supernatant. The standard used in the NO standard curve was sodium nitrite, and the NO content in the samples was calculated by substituting the absorbance values of the samples into the regression equation of the standard curve.
The DAO evaluation experimental method of Xin Y et al. was adopted, in which mouse heart blood was taken from a 1.5 mL centrifuge tube and centrifuged at 4 °C and 3000× g for 10 min, and the upper layer of serum was taken for measurement. Another 1.5 mL tube was taken and 600 μL of phosphate buffer, 20 μL of horseradish peroxidase, 20 μL of dianisidine dihydrochloride hydrochloride, and 20 μL of 1,5-pentanediamine hydrochloride were added. After that, 100 μL of serum samples to be tested was added, mixed well and heated at 37 °C for 18 h. The absorbance was measured at 436 nm. […]. A total of 100 μL of distilled water was used in the blank tube instead of serum, and the standard used in the standard curve was diamine oxidase. The absorbance value of the experimental samples was substituted into the regression equation of the standard curve to calculate the content of DAO in the serum samples.

[4] = tested on: IEC-6 cells with T. gondii infection; experiment: NO level of T. gondii-infected IEC-6 cells (Griess); assay type: cell-based; conditions: Griess method, cell supernatant; compared with Toxo group
Description: as §3

[5] = Small intestine histology and pathology scoring of T. gondii-infected mice; assay type: in vivo; conditions: 100 mg/kg oral once a day for 6 days
Description: as §2
The histology research includes apparent pathological change score, H&E staining and histopathological scores of tissue, as shown in Table 4 and Table 5. In detail, the obtained small intestine tissues were fixed in formalin solution and embedded in paraffin wax after gradual dehydration with different concentrations of ethanol. The paraffin fast was sectioned to a thickness of 5 μm, rehydrated and stained with hematoxylin and eosin, respectively, and finally permeabilized with xylene and sealed with neutral gum. A light microscope was used to observe and collect pictures, and the degree of damage to the small intestinal tissues was assessed according to Chiu’s six-grade scale.

[6] = tested on: T. gondii; experiment: Giemsa staining: cell infection rate and intracellular tachyzoites in IEC-6 cells; assay type: cell-based, Toxoplasma gondii; conditions: IEC-6 cells infected 3 h, drug 12 h at the IC50 value of the cells; for cell infection rate: Toxo group 49.2%; for number of intracellular tachyzoites: Toxo group 254
Description: as §1

[7] = tested on: T. gondii; experiment: In vivo anti-T. gondii activity, peritoneal tachyzoite count by Trypan Blue; parameters: species or system Toxoplasma gondii; conditions: 100 mg/kg oral once a day for 6 days; for Number of Tachyzoites: peritoneal cavity of KM female mice, i.p. 2 × 10^3 tachyzoites, Toxo 12.28 ± 0.39; for Inhibition Rate: mice peritoneal T. gondii, (untreated group − treated group)/untreated group × 100%
Description: as §2

[8] = Small intestine function of T. gondii-infected mice (weight, food utilization, carmine excretion); assay type: in vivo; conditions: 100 mg/kg oral once a day for 6 days
Description: On the last day, heart blood samples were collected after anesthesia to separate the serum, and after mice were sacrificed by cervical dislocation, mice were dissected to obtain organs and tissues. The tachyzoites were harvested from mice peritoneal cavities to determine the level of tachyzoite proliferation. The peritoneal fluid was collected twice; the first time, it was centrifuged at 500 rpm for 10 min, then the supernatant was centrifuged at 2500 rpm for 20 min, discarded, and the worm precipitate was collected at the bottom, and mixed with an appropriate amount of physiological saline. […] Mouse food intake and body weight were recorded daily for six days during the experiment and were used to record growth performance data. At the end of the experiment, body weight gain, food intake and food utilization of mice were calculated as Equation (1). […] A solution containing 3% carmine dye and 0.5% carboxymethyl cellulose was prepared. On the fifth day of T. gondii infection, each mouse was transferred to a separate cage, with the bottom of the cage completely covered with white paper to facilitate the detection of cochineal in the feces after red feces were eliminated. […] During the experimental period, the mice were free to move around, and eat and drink freely without any external interference, as described.

[9] = MTT, concentration required to reduce IEC-6 cell growth by 50%, 24 h treatment
[10] = MTT, concentration required to reduce T. gondii-infected IEC-6 cell growth by 50%, 24 h treatment

Row | Compound | IC50 [1, 9] | Selective Index (SI) [2] | IC50 [2, 10] | DAO level in serum [3] | MDA level in small intestine tissue [3] | NO level in small intestine tissue [3] | NO level of IEC-6 cells with T. gondii infection [4] | intestinal barrier damage induced by T. gondii infection (histology, H&E) [5] | cell infection rate [6] | Number of Tachyzoites [7] | IC50 ([1]; IEC-6, 24 h) | IC50 ([2]; IEC-6, 24 h) | GSH level in small intestine tissue [3] | apparent pathological damage score (intestine apparent pathology scoring) [5] | number of intracellular tachyzoites [6] | Inhibition Rate [7] | MDA level in small intestine tissue ([3]; 100 mg/kg) | NO level in small intestine tissue ([3]; 100 mg/kg) | food utilization efficiency of mice with T. gondii infection [8] | weight increment of mice with T. gondii infection [8]
1 | N#CCc1cn(C=O)c2ccccc12 [A1, 1-Formyl-1H-indole-3-acetonitrile] | 417 µM | 1.2 | 342 µM | mitigate the elevated levels | surpassed that of the positive control drug, Spy | mitigate the elevated levels | significantly decreased the release of intracellular nitric oxide | demonstrate potential in ameliorating intestinal barrier damage | 26.0% | 8.17 ± 0.84 ×10^6 |  |  |  |  |  |  |  |  |  | 
2 | NCCc1cn(C=O)c2ccccc12 [A2, 1-Formyl-1H-indole-3-ethanamine] |  |  |  |  |  |  |  |  |  |  | > 1000 µM | > 1000 µM |  |  |  |  |  |  |  | 
3 | O=Cc1c[nH]c2ccccc12 [A3, Indole-3-carboxaldehyde] | 869.2 ± 4 µM | 1.3 | 675 ± 8.3 µM | more significant | effective inhibition of the MDA increase | less pronounced compared to the other derivatives | lowest NO release levels; also recorded: significantly decreased the release of intracellular nitric oxide | most effective, surpassing the control drug Spy in efficacy | 15.0% | 8.22 ± 1.49 ×10^6 |  |  | significantly higher than that observed with the positive control drug, Spy | significantly lower apparent pathological damage score compared to Spy | more effective than Spy | 33.3% |  |  |  | 
4 | O=Cc1c[nH]c2ncc(Br)cc12 [A4, 5-bromo-1H-pyrrolo[2,3-b] pyridine-3-carbaldehyde] | 960.3 ± 2.5 µM | 1.0 | 995.7 ± 4.9 µM |  |  |  |  |  |  |  |  |  |  |  |  |  |  |  |  | 
5 | O=Cc1c(Cl)[nH]c2ccccc12 [A5, 2-Chloro-1H-indole-3-carbaldehyde] | 602 ± 9.9 µM | 1.1 | 564 ± 6.9 µM | mitigate the elevated levels | effective inhibition of the MDA increase | mitigate the elevated levels | significantly decreased the release of intracellular nitric oxide | demonstrate potential in ameliorating intestinal barrier damage | 20.3% | 9.56 ± 0.92 ×10^6 |  |  |  |  | more effective than Spy | 22.2% |  |  |  | 
6 | COC(=O)c1cn(C=O)c2ccccc12 [A6, 1-formyl-1H-indole-3-carboxylic acid methyl ester] |  | 0.9 |  |  |  |  |  |  |  |  | 633 ± 9.8 µM | 742 ± 10.5 µM |  |  |  |  |  |  |  | 
7 | Clc1cc2ccccc2[nH]1 [A7, 2-Chloro-1H-indole] | 283.7 ± 2.6 µM | 1.0 | 287 ± 6.1 µM |  |  |  |  |  |  |  |  |  |  |  |  |  |  |  |  | 
8 | Cn1cc(C=O)c2ccccc21 [A8, 1-Methyl-indole-3-carbaldehyde] | 650 ± 7.9 µM | 1.1 | 571 ± 7.4 µM | mitigate the elevated levels |  |  | significantly decreased the release of intracellular nitric oxide | demonstrate potential in ameliorating intestinal barrier damage | 20.5% | 8.92 ± 0.51 ×10^6 |  |  |  |  | more effective than Spy |  | effective inhibition of the MDA increase; also recorded: slightly outperformed A9 | mitigate the elevated levels; also recorded: slightly outperformed A9 |  | 
9 | Cn1c(-c2ccccc2)c(C=O)c2ccccc21 [A9, 1-Methyl-2-phenylindole-3-carbaldehyde] | 408.4 ± 3.5 µM | 1.1 | 366 ± 8.8 µM |  | effective inhibition of the MDA increase | mitigate the elevated levels | lowest NO release levels; also recorded: significantly decreased the release of intracellular nitric oxide | demonstrate potential in ameliorating intestinal barrier damage | 18.0% | 8.83 ± 0.39 ×10^6 |  |  |  |  | more effective than Spy | 28.1% |  |  | enhanced food utilization efficiency | did not affect this parameter, except for derivative A9
10 | c1ccc2[nH]ccc2c1 [Indole, indole] |  | 1.0 |  |  |  |  |  |  | 32.2% | 10.33 ± 2.84 ×10^6 | 939.6 ± 5.4 µM | 921.2 ± 5 µM |  |  |  |  |  |  |  | 
